# Source: PMC11435058, “Synthesis of New Thiazole-Privileged Chalcones as Tubulin Polymerization Inhibitors with Potential Anticancer Activities” (Pharmaceuticals, 2024)
# Tests used:
# Test in all cases: NCI-60 anticancer screen (SRB; single dose and five doses)
# UACC-257 = conditions: Homo sapiens
# MCF7 = conditions: Homo sapiens
# SK-MEL-2 = conditions: Homo sapiens
# SF-295 = conditions: Homo sapiens
# HCC-2998 = conditions: Homo sapiens
# U251 = conditions: Homo sapiens
# HCT-15 = conditions: Homo sapiens
# MALME-3M = conditions: Homo sapiens
# UACC-62 = conditions: Homo sapiens
# OVCAR-8 = conditions: Homo sapiens
# COLO 205 = conditions: Homo sapiens
# M14 = conditions: Homo sapiens
# OVCAR-4 = conditions: Homo sapiens
# HOP-62 = conditions: Homo sapiens
# MOLT-4 = conditions: Homo sapiens
# MDA-MB-468 = assay type: cell-based, human
# How it was run: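 Readout was sulforhodamine B staining, read spectrophotometrically as percent growth against untreated controls. This followed a 48 h exposure to one 10μM dose across roughly 60 human tumor lines of the NCI screen.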
# LOX IMVI = conditions: Homo sapiens
# NCI-H23 = conditions: Homo sapiens
# NCI-H226 = conditions: Homo sapiens
# TK-10 = conditions: Homo sapiens
# T-47D = conditions: Homo sapiens, T47D
# 786-0 = conditions: Homo sapiens
# NCI-H322M = conditions: Homo sapiens
# BT-549 = conditions: Homo sapiens
# RPMI-8226 = conditions: Homo sapiens
# [1] = 48 h, read-out: Growth Percentage
smiles,measurement,setting,value
"Cc1[nH]c(=S)sc1C(=O)/C=C/c1cccc(Cl)c1 [2e, (E)-3-(3-Chlorophenyl)-1-(4-Methyl-2-Thioxo-2,3-Dihydrothiazol-5-yl)Prop-2-En-1-One]",GI50,UACC-257; UACC-257,3.63 µM
same,IC50,UACC-257; UACC-257,9.77 µM
same,activity at 10 µM,"UACC-257; UACC-257, 48 h, read-out: Growth Percentage",52.7%
same,CC50,"UACC-257; UACC-257, read-out: LC50",63.1 µM
same,IC (TGI),"UACC-257; UACC-257, read-out: TGI",14.8 µM
same,GI50,MCF7; MCF7,3.31 µM
same,IC50,MCF7; MCF7,8.13 µM
same,activity at 10 µM,"MCF7; MCF7, 48 h, read-out: Growth Percentage",7.9%
same,CC50,"MCF7; MCF7, read-out: LC50",37.1 µM
same,IC (TGI),"MCF7; MCF7, read-out: TGI",12.3 µM
same,GI50,SK-MEL-2; SK-MEL-2,10.5 µM
same,IC50,SK-MEL-2; SK-MEL-2,29.5 µM
same,activity at 10 µM,"SK-MEL-2; SK-MEL-2, 48 h, read-out: Growth Percentage",32.1%
same,CC50,"SK-MEL-2; SK-MEL-2, read-out: LC50",70.8 µM
same,IC (TGI),"SK-MEL-2; SK-MEL-2, read-out: TGI",27.5 µM
same,GI50,SF-295; SF-295,4.37 µM
same,IC50,SF-295; SF-295,11.5 µM
same,activity at 10 µM,"SF-295; SF-295, 48 h, read-out: Growth Percentage",41.8%
same,CC50,"SF-295; SF-295, read-out: LC50",43.6 µM
same,IC (TGI),"SF-295; SF-295, read-out: TGI",17 µM
same,GI50,HCC-2998; HCC 2998,2.57 µM
same,IC50,HCC-2998; HCC 2998,4.37 µM
same,activity at 10 µM,"HCC-2998; HCC 2998, 48 h, read-out: Growth Percentage",13.9%
same,CC50,"HCC-2998; HCC 2998, read-out: LC50",28.2 µM
same,GI50,U251; U-251,1.91 µM
same,IC50,U251; U-251,3.31 µM
same,activity at 10 µM,"U251; U-251, 48 h, read-out: Growth Percentage",12.1%
same,CC50,"U251; U-251, read-out: LC50",7.24 µM
same,IC (TGI),"U251; U-251, read-out: TGI",3.72 µM
same,GI50,HCT-15; HCT-15,2.09 µM
same,IC50,HCT-15; HCT-15,3.55 µM
same,activity at 10 µM,"HCT-15; HCT-15, 48 h, read-out: Growth Percentage",-22%
same,CC50,"HCT-15; HCT-15, read-out: LC50",46.8 µM
same,IC (TGI),"HCT-15; HCT-15, read-out: TGI",5.89 µM
same,GI50,MALME-3M,2.24 µM
same,IC50,MALME-3M,5.13 µM
same,activity at 10 µM,MALME-3M; [1],86.9%
same,CC50,MALME-3M; read-out: LC50,50.1 µM
same,IC (TGI),MALME-3M; read-out: TGI,5.75 µM
same,GI50,UACC-62; UACC-62,2.34 µM
same,IC50,UACC-62; UACC-62,4.17 µM
same,activity at 10 µM,"UACC-62; UACC-62, 48 h, read-out: Growth Percentage",30%
same,IC (TGI),"UACC-62; UACC-62, read-out: TGI",8.71 µM
same,GI50,OVCAR-8; OVCAR-8,2.69 µM
same,IC50,OVCAR-8; OVCAR-8,3.89 µM
same,activity at 10 µM,"OVCAR-8; OVCAR-8, 48 h, read-out: Growth Percentage",10.4%
same,CC50,"OVCAR-8; OVCAR-8, read-out: LC50",> 100 µM
same,IC (TGI),"OVCAR-8; OVCAR-8, read-out: TGI",7.59 µM
same,GI50,COLO 205; COLO 205,3.55 µM
same,IC50,COLO 205; COLO 205,5.25 µM
same,activity at 10 µM,"COLO 205; COLO 205, 48 h, read-out: Growth Percentage",70.7%
same,CC50,"COLO 205; COLO 205, read-out: LC50",51.3 µM
same,IC (TGI),"COLO 205; COLO 205, read-out: TGI",14.4 µM
same,GI50,M14; M14,2.88 µM
same,IC50,M14; M14,4.17 µM
same,activity at 10 µM,"M14; M14, 48 h, read-out: Growth Percentage",40.2%
same,IC (TGI),"M14; M14, read-out: TGI",9.55 µM
same,GI50,OVCAR-4; OVCAR-4,4.47 µM
same,IC50,OVCAR-4; OVCAR-4,12.9 µM
same,activity at 10 µM,"OVCAR-4; OVCAR-4, 48 h, read-out: Growth Percentage",31.7%
same,CC50,"OVCAR-4; OVCAR-4, read-out: LC50",> 100 µM
same,IC (TGI),"OVCAR-4; OVCAR-4, read-out: TGI",41.7 µM
same,GI50,HOP-62; HOP-62,2.57 µM
same,IC50,HOP-62; HOP-62,4.68 µM
same,activity at 10 µM,"HOP-62; HOP-62, 48 h, read-out: Growth Percentage",10.4%
same,CC50,"HOP-62; HOP-62, read-out: LC50",74.1 µM
same,IC (TGI),"HOP-62; HOP-62, read-out: TGI",6.31 µM
same,GI50,MOLT-4; MOLT-4,2.82 µM
same,IC50,MOLT-4; MOLT-4,4.27 µM
same,activity at 10 µM,"MOLT-4; MOLT-4, 48 h, read-out: Growth Percentage",19.8%
same,CC50,"MOLT-4; MOLT-4, read-out: LC50",> 100 µM
same,IC (TGI),"MOLT-4; MOLT-4, read-out: TGI",> 100 µM
same,activity at 10 µM,"MDA-MB-468; Homo sapiens, 48 h, MDA-MB-468, dose of 10 μM, read-out: Growth Percentage",-7.12%
same,IC50,"MDA-MB-468; Homo sapiens, MDA-MB-468, MDA-MB-468, Breast Cancer, five dose",12.6 µM
same,GI50,"MDA-MB-468; Homo sapiens, MDA-MB-468, Breast Cancer, five dose",3.8 µM
same,CC50,"MDA-MB-468; Homo sapiens, MDA-MB-468, Breast Cancer, five dose, read-out: LC50 (the source's name)",46.8 µM
same,TGI,"MDA-MB-468; MDA-MB-468, Breast Cancer, five dose",15.85 µM
same,GI50,LOX IMVI,1.66 µM
same,IC50,LOX IMVI,2.88 µM
same,activity at 10 µM,LOX IMVI; [1],-26.1%
same,CC50,LOX IMVI; read-out: LC50,5.75 µM
same,IC (TGI),LOX IMVI; read-out: TGI,3.09 µM
same,GI50,NCI-H23; NCI-H23,2.09 µM
same,IC50,NCI-H23; NCI-H23,3.63 µM
same,activity at 10 µM,"NCI-H23; NCI-H23, 48 h, read-out: Growth Percentage",18%
same,CC50,"NCI-H23; NCI-H23, read-out: LC50",12.9 µM
same,IC (TGI),"NCI-H23; NCI-H23, read-out: TGI",4.68 µM
same,GI50,NCI-H226; NCI-H226,4.37 µM
same,IC50,NCI-H226; NCI-H226,29.5 µM
same,activity at 10 µM,"NCI-H226; NCI-H226, 48 h, read-out: Growth Percentage",32.7%
same,CC50,"NCI-H226; NCI-H226, read-out: LC50",> 100 µM
same,IC (TGI),"NCI-H226; NCI-H226, read-out: TGI",38.9 µM
same,GI50,TK-10; TK-10,19.5 µM
same,IC50,TK-10; TK-10,45.7 µM
same,CC50,"TK-10; TK-10, read-out: LC50",> 100 µM
same,IC (TGI),"TK-10; TK-10, read-out: TGI",47.9 µM
same,GI50,T-47D,3.39 µM
same,IC50,T-47D,7.94 µM
same,activity at 10 µM,T-47D; [1],4.54%
same,CC50,T-47D; read-out: LC50,> 100 µM
same,IC (TGI),T-47D; read-out: TGI,20.9 µM
same,GI50,786-0; 786-0,2.51 µM
same,IC50,786-0; 786-0,4.07 µM
same,activity at 10 µM,"786-0; 786-0, 48 h, read-out: Growth Percentage",13.3%
same,CC50,"786-0; 786-0, read-out: LC50",37.1 µM
same,IC (TGI),"786-0; 786-0, read-out: TGI",6.31 µM
same,GI50,NCI-H322M,6.03 µM
same,IC50,NCI-H322M,16.2 µM
same,activity at 10 µM,NCI-H322M; [1],50.1%
same,CC50,NCI-H322M; read-out: LC50,85.1 µM
same,IC (TGI),NCI-H322M; read-out: TGI,26.3 µM
same,GI50,BT-549; BT-549,2.24 µM
same,IC50,BT-549; BT-549,5.89 µM
same,activity at 10 µM,"BT-549; BT-549, 48 h, read-out: Growth Percentage",2.28%
same,IC (TGI),"BT-549; BT-549, read-out: TGI",6.17 µM
same,GI50,RPMI-8226; RPMI-8226,2.04 µM
same,IC50,RPMI-8226; RPMI-8226,3.72 µM
same,activity at 10 µM,"RPMI-8226; RPMI-8226, 48 h, read-out: Growth Percentage",10.4%
same,CC50,"RPMI-8226; RPMI-8226, read-out: LC50",> 100 µM
same,IC (TGI),"RPMI-8226; RPMI-8226, read-out: TGI",5.5 µM
